What was measured:
[1] = target: T1, Activin receptor type-1 (Homo sapiens) (UniProt Q04771); assay: Inhibition of human ALK2 at 18.6 nM by HotSpot assay relative to control
T1 sequence (whole entry): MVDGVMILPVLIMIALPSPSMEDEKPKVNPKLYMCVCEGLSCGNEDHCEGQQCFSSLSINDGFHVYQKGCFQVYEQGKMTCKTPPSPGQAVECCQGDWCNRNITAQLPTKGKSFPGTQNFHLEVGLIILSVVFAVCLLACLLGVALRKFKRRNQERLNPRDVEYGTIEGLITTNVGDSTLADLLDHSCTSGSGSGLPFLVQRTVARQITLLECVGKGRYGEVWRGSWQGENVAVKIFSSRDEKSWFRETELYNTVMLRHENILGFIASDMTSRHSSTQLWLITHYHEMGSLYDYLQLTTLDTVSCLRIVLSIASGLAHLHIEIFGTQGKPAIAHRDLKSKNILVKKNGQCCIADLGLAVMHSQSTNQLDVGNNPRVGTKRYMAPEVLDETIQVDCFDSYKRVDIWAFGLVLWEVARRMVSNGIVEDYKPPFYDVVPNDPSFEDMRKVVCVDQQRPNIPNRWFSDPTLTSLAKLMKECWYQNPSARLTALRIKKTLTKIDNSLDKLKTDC

[2] = target: MAP kinase-activated protein kinase 2 (Homo sapiens) (UniProt P49137); assay: Inhibition of human MAPKAPK2 at 18.6 nM by HotSpot assay relative to control
[3] = target: T2, Serine/threonine-protein kinase Nek3 (Homo sapiens) (UniProt P51956); assay: Inhibition of human NEK3 at 18.6 nM by HotSpot assay relative to control
T2 sequence (whole entry): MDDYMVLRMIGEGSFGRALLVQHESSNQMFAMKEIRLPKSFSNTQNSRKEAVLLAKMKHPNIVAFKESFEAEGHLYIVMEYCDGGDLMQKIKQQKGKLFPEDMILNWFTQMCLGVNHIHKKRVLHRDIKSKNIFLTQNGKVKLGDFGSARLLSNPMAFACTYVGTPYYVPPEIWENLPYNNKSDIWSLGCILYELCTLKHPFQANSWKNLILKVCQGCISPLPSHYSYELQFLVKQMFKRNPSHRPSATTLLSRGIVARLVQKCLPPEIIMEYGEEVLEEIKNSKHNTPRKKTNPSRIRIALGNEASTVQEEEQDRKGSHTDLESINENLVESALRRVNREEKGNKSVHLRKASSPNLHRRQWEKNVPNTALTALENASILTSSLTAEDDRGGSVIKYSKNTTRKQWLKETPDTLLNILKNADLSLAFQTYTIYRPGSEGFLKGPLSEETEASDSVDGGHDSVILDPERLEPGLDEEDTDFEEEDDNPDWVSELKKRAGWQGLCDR

[4] = target: Fibroblast growth factor receptor 1 (Homo sapiens) (UniProt P11362); assay: Inhibition of human FGFR1 at 18.6 nM by HotSpot assay relative to control
[5] = target: Tyrosine-protein kinase Fgr (Homo sapiens) (UniProt P09769); assay: Inhibition of human FGR at 18.6 nM by HotSpot assay relative to control
[6] = target: LIM domain kinase 1 (Homo sapiens) (UniProt P53667); assay: Inhibition of human LIMK1 at 18.6 nM by HotSpot assay relative to control
[7] = target: Tyrosine-protein kinase CSK (Homo sapiens) (UniProt P41240); assay: Inhibition of human CSK at 18.6 nM by HotSpot assay relative to control
[8] = target: STE20/SPS1-related proline-alanine-rich protein kinase (Homo sapiens) (UniProt Q9UEW8); assay: Inhibition of human STLK3 at 1.82 nM by HotSpot assay relative to control
[9] = target: Mitogen-activated protein kinase kinase kinase 20 (Homo sapiens) (UniProt Q9NYL2); assay: Inhibition of human MLTK at 1.82 nM by HotSpot assay relative to control
[10] = target: Dual specificity protein kinase CLK3 (Homo sapiens) (UniProt P49761); conditions: dose 1.82 nM
Description: Inhibition of human CLK3 at 1.82 nM by HotSpot assay relative to control

[11] = target: Misshapen-like kinase 1 (Homo sapiens) (UniProt Q8N4C8); assay: Inhibition of human MINK1 at 1.82 nM by HotSpot assay relative to control
[12] = target: STE20-like serine/threonine-protein kinase (Homo sapiens) (UniProt Q9H2G2); assay: Inhibition of human STK2 at 1.82 nM by HotSpot assay relative to control
[13] = target: Leucine-rich repeat serine/threonine-protein kinase 2 (Homo sapiens) (UniProt Q5S007); assay: Inhibition of human LRRK2 at 1.82 nM by HotSpot assay relative to control
[14] = target: T3, Mitogen-activated protein kinase kinase kinase 3 (Homo sapiens) (UniProt Q99759); assay: Inhibition of human MEKK3 at 1.82 nM by HotSpot assay relative to control
T3 sequence (whole entry): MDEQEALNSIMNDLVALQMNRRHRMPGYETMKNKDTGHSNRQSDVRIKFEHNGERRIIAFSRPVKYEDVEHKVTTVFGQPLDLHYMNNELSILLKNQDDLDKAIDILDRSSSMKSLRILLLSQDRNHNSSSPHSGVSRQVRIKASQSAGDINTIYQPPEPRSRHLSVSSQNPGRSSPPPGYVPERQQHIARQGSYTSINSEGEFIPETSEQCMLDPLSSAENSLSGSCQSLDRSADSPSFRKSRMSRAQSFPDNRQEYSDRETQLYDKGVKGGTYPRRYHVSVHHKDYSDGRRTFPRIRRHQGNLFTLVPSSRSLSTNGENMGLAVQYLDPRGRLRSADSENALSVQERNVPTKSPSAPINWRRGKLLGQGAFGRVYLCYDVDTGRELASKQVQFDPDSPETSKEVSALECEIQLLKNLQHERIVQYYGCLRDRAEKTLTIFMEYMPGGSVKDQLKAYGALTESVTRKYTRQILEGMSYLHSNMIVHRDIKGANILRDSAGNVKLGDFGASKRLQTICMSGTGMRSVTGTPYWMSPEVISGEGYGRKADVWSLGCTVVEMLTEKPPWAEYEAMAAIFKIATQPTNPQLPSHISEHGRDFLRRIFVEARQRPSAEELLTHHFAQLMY

[15] = target: Serine/threonine-protein kinase 24 (Homo sapiens) (UniProt Q9Y6E0); assay: Inhibition of human STK24 at 1.82 nM by HotSpot assay relative to control
Sequence of Serine/threonine-protein kinase 24 (Homo sapiens) (Q9Y6E0 whole entry, looked up): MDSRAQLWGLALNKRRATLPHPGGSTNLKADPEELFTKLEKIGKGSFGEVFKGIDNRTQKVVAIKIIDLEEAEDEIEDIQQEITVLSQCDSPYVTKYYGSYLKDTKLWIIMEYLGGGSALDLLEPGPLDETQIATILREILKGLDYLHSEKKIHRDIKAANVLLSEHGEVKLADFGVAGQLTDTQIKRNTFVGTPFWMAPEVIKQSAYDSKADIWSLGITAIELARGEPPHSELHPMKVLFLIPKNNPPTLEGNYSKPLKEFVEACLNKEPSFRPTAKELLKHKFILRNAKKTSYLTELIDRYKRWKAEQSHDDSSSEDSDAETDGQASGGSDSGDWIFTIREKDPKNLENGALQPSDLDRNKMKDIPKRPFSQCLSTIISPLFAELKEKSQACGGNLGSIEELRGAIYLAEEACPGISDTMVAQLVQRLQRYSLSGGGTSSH

Sequence of MAP kinase-activated protein kinase 2 (Homo sapiens) (P49137 whole entry, looked up): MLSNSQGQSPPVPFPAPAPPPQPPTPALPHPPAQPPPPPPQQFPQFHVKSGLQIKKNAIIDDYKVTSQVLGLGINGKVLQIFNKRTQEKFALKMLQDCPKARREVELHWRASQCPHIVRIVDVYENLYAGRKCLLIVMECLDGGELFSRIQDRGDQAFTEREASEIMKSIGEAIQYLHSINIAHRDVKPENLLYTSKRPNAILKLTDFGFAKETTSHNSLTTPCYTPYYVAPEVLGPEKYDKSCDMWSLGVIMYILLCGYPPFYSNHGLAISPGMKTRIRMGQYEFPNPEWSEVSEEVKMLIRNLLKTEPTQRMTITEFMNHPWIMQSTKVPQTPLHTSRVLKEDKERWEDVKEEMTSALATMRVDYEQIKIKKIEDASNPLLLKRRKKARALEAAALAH
Sequence of Dual specificity protein kinase CLK3 (Homo sapiens) (P49761 whole entry, looked up): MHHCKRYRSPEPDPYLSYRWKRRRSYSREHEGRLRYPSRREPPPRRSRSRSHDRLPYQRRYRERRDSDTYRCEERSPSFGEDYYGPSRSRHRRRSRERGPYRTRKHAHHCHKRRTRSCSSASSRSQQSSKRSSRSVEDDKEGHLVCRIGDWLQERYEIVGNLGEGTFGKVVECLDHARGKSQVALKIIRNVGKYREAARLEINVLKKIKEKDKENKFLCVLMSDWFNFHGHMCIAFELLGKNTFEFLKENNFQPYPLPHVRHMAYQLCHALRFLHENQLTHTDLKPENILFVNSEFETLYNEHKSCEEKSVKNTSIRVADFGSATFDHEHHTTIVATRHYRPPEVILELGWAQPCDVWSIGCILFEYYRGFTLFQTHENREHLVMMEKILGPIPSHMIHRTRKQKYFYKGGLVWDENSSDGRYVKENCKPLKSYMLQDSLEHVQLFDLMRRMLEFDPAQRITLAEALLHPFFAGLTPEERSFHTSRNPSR
Sequence of Fibroblast growth factor receptor 1 (Homo sapiens) (P11362 22-822 limits assumed): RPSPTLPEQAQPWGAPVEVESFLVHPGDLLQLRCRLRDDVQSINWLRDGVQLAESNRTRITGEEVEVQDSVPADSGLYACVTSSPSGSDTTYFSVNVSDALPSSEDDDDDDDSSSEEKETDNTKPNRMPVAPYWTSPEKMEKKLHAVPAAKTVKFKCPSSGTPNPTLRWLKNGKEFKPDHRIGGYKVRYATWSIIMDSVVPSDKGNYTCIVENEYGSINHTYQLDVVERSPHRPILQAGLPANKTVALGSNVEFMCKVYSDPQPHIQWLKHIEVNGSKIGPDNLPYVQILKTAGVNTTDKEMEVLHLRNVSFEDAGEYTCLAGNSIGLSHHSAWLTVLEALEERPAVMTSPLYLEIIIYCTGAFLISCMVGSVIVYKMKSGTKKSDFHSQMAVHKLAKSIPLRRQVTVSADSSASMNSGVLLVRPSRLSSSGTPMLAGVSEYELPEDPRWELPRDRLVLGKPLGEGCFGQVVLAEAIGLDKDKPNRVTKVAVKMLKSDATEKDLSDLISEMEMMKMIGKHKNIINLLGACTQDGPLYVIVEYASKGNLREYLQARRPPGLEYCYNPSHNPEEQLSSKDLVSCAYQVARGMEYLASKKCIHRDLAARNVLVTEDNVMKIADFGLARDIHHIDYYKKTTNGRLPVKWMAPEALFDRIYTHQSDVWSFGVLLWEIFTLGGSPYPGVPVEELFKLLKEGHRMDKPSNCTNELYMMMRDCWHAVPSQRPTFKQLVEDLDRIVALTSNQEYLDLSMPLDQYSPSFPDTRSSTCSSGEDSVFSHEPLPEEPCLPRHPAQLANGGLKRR
Sequence of Misshapen-like kinase 1 (Homo sapiens) (Q8N4C8 whole entry, looked up): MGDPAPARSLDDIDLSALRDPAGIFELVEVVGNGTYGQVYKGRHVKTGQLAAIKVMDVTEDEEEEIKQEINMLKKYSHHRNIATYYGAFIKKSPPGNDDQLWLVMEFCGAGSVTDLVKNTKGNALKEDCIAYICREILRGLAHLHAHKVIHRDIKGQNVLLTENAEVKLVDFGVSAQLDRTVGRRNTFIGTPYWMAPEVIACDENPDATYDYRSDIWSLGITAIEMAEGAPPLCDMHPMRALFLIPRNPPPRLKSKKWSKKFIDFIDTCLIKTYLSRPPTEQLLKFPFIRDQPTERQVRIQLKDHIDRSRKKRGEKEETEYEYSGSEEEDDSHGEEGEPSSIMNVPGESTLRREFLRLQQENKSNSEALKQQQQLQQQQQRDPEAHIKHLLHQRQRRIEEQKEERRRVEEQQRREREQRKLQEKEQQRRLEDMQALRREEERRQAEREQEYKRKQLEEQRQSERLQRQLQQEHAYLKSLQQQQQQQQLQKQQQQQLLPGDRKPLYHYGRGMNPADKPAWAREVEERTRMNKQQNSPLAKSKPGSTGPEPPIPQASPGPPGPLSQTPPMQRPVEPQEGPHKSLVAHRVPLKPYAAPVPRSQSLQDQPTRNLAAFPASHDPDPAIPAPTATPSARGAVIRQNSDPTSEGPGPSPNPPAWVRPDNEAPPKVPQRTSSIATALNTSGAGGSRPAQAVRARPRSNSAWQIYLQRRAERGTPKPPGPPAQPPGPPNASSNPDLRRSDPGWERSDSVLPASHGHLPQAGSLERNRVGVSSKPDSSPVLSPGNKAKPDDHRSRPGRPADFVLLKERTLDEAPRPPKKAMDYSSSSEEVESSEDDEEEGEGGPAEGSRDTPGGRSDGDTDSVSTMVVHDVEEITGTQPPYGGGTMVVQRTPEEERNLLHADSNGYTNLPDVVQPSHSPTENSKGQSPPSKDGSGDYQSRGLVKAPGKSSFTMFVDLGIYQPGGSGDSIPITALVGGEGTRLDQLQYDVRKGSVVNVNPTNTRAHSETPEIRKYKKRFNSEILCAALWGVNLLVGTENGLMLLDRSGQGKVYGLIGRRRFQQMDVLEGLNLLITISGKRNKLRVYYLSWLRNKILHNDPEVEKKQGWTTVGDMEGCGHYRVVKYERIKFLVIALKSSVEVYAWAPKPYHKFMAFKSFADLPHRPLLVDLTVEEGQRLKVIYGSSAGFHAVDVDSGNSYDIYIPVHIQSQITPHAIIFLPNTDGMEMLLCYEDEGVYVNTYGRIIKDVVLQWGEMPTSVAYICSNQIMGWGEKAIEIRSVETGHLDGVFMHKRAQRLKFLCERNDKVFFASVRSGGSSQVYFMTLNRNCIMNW
Sequence of Tyrosine-protein kinase CSK (Homo sapiens) (P41240 2-450 limits assumed): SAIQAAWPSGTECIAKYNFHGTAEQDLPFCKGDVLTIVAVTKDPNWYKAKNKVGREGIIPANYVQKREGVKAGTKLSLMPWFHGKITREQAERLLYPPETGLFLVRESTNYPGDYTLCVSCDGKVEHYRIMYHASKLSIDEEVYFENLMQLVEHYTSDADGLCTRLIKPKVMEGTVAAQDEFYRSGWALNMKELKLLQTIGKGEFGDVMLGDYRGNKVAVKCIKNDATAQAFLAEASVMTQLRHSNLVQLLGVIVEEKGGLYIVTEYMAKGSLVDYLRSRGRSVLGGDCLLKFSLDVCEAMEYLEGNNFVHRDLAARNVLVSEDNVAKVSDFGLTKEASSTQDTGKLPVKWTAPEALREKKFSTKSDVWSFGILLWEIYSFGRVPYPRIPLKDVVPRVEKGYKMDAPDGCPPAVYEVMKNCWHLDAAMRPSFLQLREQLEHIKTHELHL
Sequence of Mitogen-activated protein kinase kinase kinase 20 (Homo sapiens) (Q9NYL2 2-800 limits assumed): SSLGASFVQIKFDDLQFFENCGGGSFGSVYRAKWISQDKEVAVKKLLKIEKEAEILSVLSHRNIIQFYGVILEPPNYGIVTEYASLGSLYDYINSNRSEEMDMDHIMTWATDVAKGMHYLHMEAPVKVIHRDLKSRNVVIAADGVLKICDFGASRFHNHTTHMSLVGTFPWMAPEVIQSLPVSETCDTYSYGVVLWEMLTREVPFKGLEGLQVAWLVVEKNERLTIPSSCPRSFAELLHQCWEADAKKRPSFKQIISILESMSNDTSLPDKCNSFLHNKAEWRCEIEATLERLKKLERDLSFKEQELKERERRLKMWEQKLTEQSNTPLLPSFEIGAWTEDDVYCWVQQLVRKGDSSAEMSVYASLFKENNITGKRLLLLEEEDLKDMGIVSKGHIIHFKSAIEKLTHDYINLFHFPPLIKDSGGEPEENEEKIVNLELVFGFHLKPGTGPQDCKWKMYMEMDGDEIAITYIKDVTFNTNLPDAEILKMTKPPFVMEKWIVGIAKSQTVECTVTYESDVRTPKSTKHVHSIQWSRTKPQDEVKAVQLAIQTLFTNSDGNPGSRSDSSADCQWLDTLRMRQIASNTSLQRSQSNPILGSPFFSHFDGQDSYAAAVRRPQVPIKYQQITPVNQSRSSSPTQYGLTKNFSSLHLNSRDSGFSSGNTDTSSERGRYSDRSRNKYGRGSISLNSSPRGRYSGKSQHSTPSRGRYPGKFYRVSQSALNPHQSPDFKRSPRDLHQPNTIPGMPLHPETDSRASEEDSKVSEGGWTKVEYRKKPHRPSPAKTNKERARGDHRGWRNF

C[C@]1(O)C[C@@H](c2nc(-c3ccc4ccc(-c5ccccc5)nc4c3)c3c(N)nccn32)C1 was tested, and the inhibition [1] was 1.44%, the inhibition [2] was 5.71% and the inhibition [3] was 7.82%. It also gave an inhibition [4] of -8.13%, an inhibition [5] of -9.34% and an inhibition [6] of -8.11%. The inhibition [7] was 3.89%.
Work on C[C@@]1(C(=O)Nc2ccc(F)nc2)CCCN1c1nc(Nc2cc(C3CC3)n[nH]2)c2cccn2n1 yielded an inhibition [8] of -5.74%, an inhibition [9] of 2.09% and an inhibition [10] of -1.35%. It also gave an inhibition [11] of 0.36%, an inhibition [12] of 15.4% and an inhibition [13] of -6.63%. The inhibition [14] was -2.8% and the inhibition [15] was 2.42%.
